Measurements as given in US5008245A (University of Kentucky Research Foundation, priority 1988, dated 1991).
Where two headings read alike, the source gives them in different places.

Columns and labels:
Type in all cases: biochemical
[1] = biological target: T1, HLE (human leukocyte elastase) (Homo sapiens, UniProt P08246); assay: Inhibition of HLE by desmosine-like peptidyl carbamates, steady state kinetics (Dixon plot, Lineweaver-Burk slope replot)
T1 sequence (P08246 30-267): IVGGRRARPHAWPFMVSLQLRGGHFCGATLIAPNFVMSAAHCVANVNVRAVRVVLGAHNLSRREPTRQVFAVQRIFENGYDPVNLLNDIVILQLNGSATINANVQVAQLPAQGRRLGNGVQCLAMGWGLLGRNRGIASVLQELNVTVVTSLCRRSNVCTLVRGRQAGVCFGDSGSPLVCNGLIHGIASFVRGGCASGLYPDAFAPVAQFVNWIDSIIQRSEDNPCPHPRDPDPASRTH
Method: ^c Lines contained linear regression analysis correlations of >0.950.
^d Ki values determined from LineweaverBurk slope replots. Slope
were obtained from lines with linear regression analysis correlations of
^a Ki value was determined by steady state kinetics.
(§1) These studies are conducted to show the activities of some of the compounds of this invention as inhibitors of various forms of the enzyme elastase.

[2] = biological target: PPE (porcine pancreatic elastase) (Sus scrofa, UniProt P00772); assay: Inhibition of PPE by peptidyl carbamates; details: Ex. 67 table, N.I. = no inhibition at I/E = 100
Method: as §1
^c N.I. refers to no inhibition at I/E = 100.

[3] = biological target: enzyme elastase; assay: Inhibition of the enzyme elastase, Ki / inhibitor dissociation constants; details: p-nitrophenyl at P1 replaced by N-phenylthiotetrazole
[4] = Table 1, variations in P4, Dixon plot, linear regression correlations >0.950, read-out: Ki value (μM) Dixon
[5] = Table 1, variations in P4, Lineweaver-Burk slope replots, correlations >0.990, read-out: Ki value (μM) Replot
[6] = Table 2, variations in P3, Dixon plot, linear regression correlations >0.950, read-out: Ki values (μM) Dixon
[7] = Table 2, variations in P3, Lineweaver-Burk slope replots, correlations >0.990, read-out: Ki values (μM) Replot
[8] = Ki values (μM) Dixon, Table 2, variations in P3, Dixon plot, linear regression correlations >0.950
[9] = Ki values (μM) Replot, Table 2, variations in P3, Lineweaver-Burk slope replots, correlations >0.990

PPE (porcine pancreatic elastase), sequence (P00772 27-266): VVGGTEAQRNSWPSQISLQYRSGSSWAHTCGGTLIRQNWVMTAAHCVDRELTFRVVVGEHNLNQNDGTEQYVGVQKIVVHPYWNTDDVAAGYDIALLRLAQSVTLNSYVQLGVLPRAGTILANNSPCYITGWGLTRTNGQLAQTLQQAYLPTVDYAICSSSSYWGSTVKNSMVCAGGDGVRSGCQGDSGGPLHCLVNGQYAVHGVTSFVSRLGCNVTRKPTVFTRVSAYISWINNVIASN

Compound	Ki [1, 4] [µM]	Ki [1, 5] [µM]	Ki (μM) PPE ([2]; variations at P4)	Ki [1, 6] [µM]	Ki [1, 7] [µM]	other results
COC(=O)CCC(=O)N[C@@H](C)C(=O)N[C@@H](CCCCNC(=O)c1ccccc1)C(=O)N1CCC[C@H]1C(=O)CN(C(=O)Oc1ccc([N+](=O)[O-])cc1)C(C)C [Compound 49b]				34	38.5	Ki (μM) PPE ([2]; variations at P3): N.I.
COC(=O)CCC(=O)N[C@@H](C)C(=O)N[C@@H](CCCNC(=O)c1ccccc1)C(=O)N1CCC[C@@H]1C(=O)CN(C(=O)Oc1ccc([N+](=O)[O-])cc1)C(C)C [Compound 51b]						Ki [1, 8]: 104 µM; Ki [1, 9]: 100 µM; Ki (μM) PPE ([2]; variations at P3): N.I.
COC(=O)CCC(=O)NC(CCCNC(=O)OCc1ccccc1)C(=O)NC(C)C(=O)N1CCCC1C(=O)CN(C(=O)Oc1ccc([N+](=O)[O-])cc1)C(C)C (single isomer, unassigned) [Compound 46b, p-Nitrophenyl N-[Methoxysuccinyl-(Nδ -carbobenzoxy)ornithylalanylprolylmethyl]-N-isopropylcarbamate]	8.8	7.95	N.I.			
p-Nitrophenyl N-[Methoxysuccinyl-(Nδ -benzoyl)ornithylalanylprolylmethyl]-N-isopropylcarbamate [Compound 47a]	0.65	0.19	N.I.			
COC(=O)CCC(=O)NC(C)C(=O)NC(CCCCNC(=O)OCc1ccccc1)C(=O)N1CCCC1C(=O)CN(C(=O)Sc1nnnn1-c1ccccc1)C(C)C (stereo not drawn) [PC5, S-(1-Phenyl-5-tetrazoyl)-N-[methoxysuccinyl-alanyl-(N6-carbonbenzoxyl)lysylprolylmethyl]-N-isopropyl thiocarbamate]						Ki [3]: 0.02 µM
COC(=O)CCC(=O)NC(CCCCNC(=O)OCc1ccccc1)C(=O)NC(C)C(=O)N1CCCC1C(=O)CN(C(=O)Oc1ccc([N+](=O)[O-])cc1)C(C)C (single isomer, unassigned) [Compound 44b, p-Nitrophenyl N-[Methoxysuccinyl-(Nε -carbobenzoxy)lysylalanylprolylmethyl]-N-isopropylcarbamate]	7.3	7.63	N.I.			
COC(=O)CCC(=O)N[C@@H](C)C(=O)N[C@@H](CCCCNC(=O)OCc1ccccc1)C(=O)N1CCC[C@@H]1C(=O)CN(C(=O)Oc1ccc([N+](=O)[O-])cc1)C(C)C [Compound 48b]						Ki ([1]; Ki (μM) HLE, Ex. 67 table, variations at P3): 11.3 µM; Ki [1, 8]: 20.4 µM; Ki [1, 9]: 11.3 µM; Ki (μM) PPE ([2]; variations at P3): N.I.
COC(=O)CCC(=O)NC(CCCNC(=O)OCc1ccccc1)C(=O)NC(C)C(=O)N1CCCC1C(=O)CN(C(=O)Sc1nnnn1-c1ccccc1)C(C)C (stereo not drawn) [PC6, S-(1-Phenyl-5-tetrazoyl)-N-[methoxysuccinyl-Nδ-carbobenzoxyl) ornithyl alanyl prolyl methyl]-N-isopropyl thiocarbamate]						Ki [3]: 0.003 µM
COC(=O)CCC(=O)NC(CCCNC(=O)OCc1ccccc1)C(=O)NC(C)C(=O)N1CCCC1C(=O)CN(C(=O)Oc1ccc([N+](=O)[O-])cc1)C(C)C (single isomer, unassigned) [Compound 46a, p-Nitrophenyl N-[Methoxysuccinyl-(Nδ -carbobenzoxy)ornithylalanylprolylmethyl]-N-isopropylcarbamate]	0.43	0.36	N.I.			Ki ([1]; Ex. 67 table, variations at P4, read-out: Ki (μM) HLE): 0.65 µM

Further lines, with some results ahead:

Ki [1, 4] [µM]	Ki [1, 5] [µM]	Ki (μM) PPE ([2]; variations at P4)	Ki [1, 6] [µM]	Ki [1, 7] [µM]	Compound	other results
0.73	0.38	N.I.			COC(=O)CCC(=O)NC(CCCCNC(=O)c1ccccc1)C(=O)NC(C)C(=O)N1CCCC1C(=O)CN(C(=O)Oc1ccc([N+](=O)[O-])cc1)C(C)C (single isomer, unassigned) [Compound 45a, p-Nitrophenyl N-[Methoxysuccinyl-(Nε -benzoyl)lysylalanylprolylmethyl]-N-isopropylcarbamate]	
			0.75	1.05	p-Nitrophenyl N-[Methoxysuccinylalanyl-Nδ -carbobenzoxy)ornithylprolylmethyl]-N-isopropylcarbamate [Compound 50a]	Ki ([2]; variations at P3): 8.65 µM
3.7	3.13	N.I.			COC(=O)CCC(=O)NC(CCCCNC(=O)c1ccccc1)C(=O)NC(C)C(=O)N1CCCC1C(=O)CN(C(=O)Oc1ccc([N+](=O)[O-])cc1)C(C)C (single isomer, unassigned) [Compound 45b, p-Nitrophenyl N-[Methoxysuccinyl-(Nε -benzoyl)lysylalanylprolylmethyl]-N-isopropylcarbamate]	
			22.2	19.2	COC(=O)CCC(=O)NC(C)C(=O)NC(CCCNC(=O)OCc1ccccc1)C(=O)N1CCCC1C(=O)CN(C(=O)Oc1ccc([N+](=O)[O-])cc1)C(C)C (stereo not shown) [Compound 50b, p-Nitrophenyl N-[Methoxysuccinylalanyl-(Nδ -carbobenzoxy)ornithylprolymethyl]-N-isopropylcarbamate]	Ki (μM) PPE ([2]; variations at P3): N.I.
			1.6	0.31	COC(=O)CCC(=O)N[C@@H](C)C(=O)N[C@@H](CCCCNC(=O)c1ccccc1)C(=O)N1CCC[C@H]1C(=O)CN(C(=O)Oc1ccc([N+](=O)[O-])cc1)C(C)C [Compound 49a]	Ki ([2]; variations at P3): 3.8 µM
0.56	0.47	N.I.			COC(=O)CCC(=O)NC(CCCCNC(=O)OCc1ccccc1)C(=O)NC(C)C(=O)N1CCCC1C(=O)CN(C(=O)Oc1ccc([N+](=O)[O-])cc1)C(C)C (single isomer, unassigned) [Compound 44a, p-Nitrophenyl N-[Methoxysuccinyl-(Nε -carbobenzoxy)lysylalanylprolylmethyl]-N-isopropylcarbamate]	
			1.1	0.22	p-Nitrophenyl N-[Methoxysuccinyl-(Nδ -carbobenzoxy)lysylprolylmethyl]-N-isopropylcarbamate [Compound 48a]	Ki ([2]; variations at P3): 3.4 µM
			5.33	2.14	COC(=O)CCC(=O)NC(C)C(=O)NC(CCCNC(=O)c1ccccc1)C(=O)N1CCCC1C(=O)CN(C(=O)Oc1ccc([N+](=O)[O-])cc1)C(C)C (stereo not shown) [Compound 51a]	Ki ([2]; variations at P3): 14.3 µM
10	17.7	N.I.			p-Nitrophenyl N-[Methoxysuccinyl-(Nδ -benzoyl)ornithylalanylprolylmethyl]-N-isopropylcarbamate [Compound 47b]	
